Reference: ChEMBL document CHEMBL1671624, “Efficacy of quinoxaline-2-carboxylate 1,4-di-N-oxide derivatives in experimental tuberculosis” (Antimicrob Agents Chemother, 2008)
Values after ≈ are worked out from the molar mass of the structure shown.

Key:
[1] = tested on: Mycobacterium tuberculosis; assay: Antibacterial activity against Mycobacterium tuberculosis by microplate Alamar Blue assay; type: functional
[2] = tested on: Mycobacterium tuberculosis; assay: Antibacterial activity against Mycobacterium tuberculosis H37Rv by microplate Alamar Blue assay; type: functional
[3] = Selectivity index, ratio of EC50 for african green monkey Vero cells to MIC for Mycobacterium tuberculosis; type: functional
[4] = tested on: Mycobacterium tuberculosis; assay: Ratio of EC50 to MIC for Mycobacterium tuberculosis; type: functional
[5] = tested on: Mycobacterium tuberculosis; assay: Antibacterial activity against p-aminosalicylic acid-resistant Mycobacterium tuberculosis by microplate Alamar Blue assay; type: functional
Mus musculus [6] = assay: Toxicity in C57BL/6 mouse assessed as acute reactions upto 1000 mg/kg, po; type: organism-based; design: dose 1000 mg/kg, route oral; settings: in vivo
[7] = tested on: Mycobacterium tuberculosis; assay: Antibacterial activity against Mycobacterium tuberculosis Erdman infected in gamma interferon gene knockout C57BL/6 mouse assessed as bacterial load in spleen at 300 mg/kg, po administered 18 days postinfection for 9 days measured on day 24 (Rvb= 6.57+/-0.17 log CFU); type: functional
[8] = tested on: Mycobacterium tuberculosis; assay: Antimicrobial activity against Mycobacterium tuberculosis Erdman by microplate Alamar Blue assay; type: functional
[9] = tested on: Mycobacterium tuberculosis; assay: Antibacterial activity against Mycobacterium tuberculosis Erdman infected in gamma interferon gene knockout C57BL/6 mouse assessed as bacterial load in lung at 300 mg/kg, po administered 18 days postinfection for 9 days measured on day 24 (Rvb= 4.47+/-0.12 log CFU); type: functional
Mus musculus [10] = assay: Toxicity in C57BL/6 mouse assessed as acute adverse effects upto 1000 mg/kg, po; type: organism-based; design: dose 1000 mg/kg, route oral; settings: in vivo
[11] = tested on: Mycobacterium tuberculosis; assay: Antibacterial activity against Mycobacterium tuberculosis H37Rv assessed as compound concentration required for 99.9% bacterial killing by microplate Alamar Blue assay; type: functional
Mus musculus [12] = assay: Toxicity in gamma interferon gene knockout C57BL/6 mouse infected with Mycobacterium tuberculosis Erdman assessed as with a hunched posture at 300 mg/kg, po administered 18 days postinfection for 9 days; type: organism-based; design: dose 300 mg/kg, route oral; settings: in vivo
[13] = Cmax in C57BL/6 mouse serum after 15 to 30 mins at 100 to 200 mg/kg, po; type: ADME, organism-based; design: dose 100-200 mg/kg, route oral
[14] = tested on: Mycobacterium tuberculosis; assay: Antibacterial activity against Mycobacterium tuberculosis Erdman infected in gamma interferon gene knockout C57BL/6 mouse assessed as log reduction in bacterial load in lung at 300 mg/kg, po administered 18 days postinfection for 9 days measured on day 24 relative to control; type: functional
[15] = tested on: Mycobacterium tuberculosis; assay: Antibacterial activity against Mycobacterium tuberculosis Erdman infected in gamma interferon gene knockout C57BL/6 mouse assessed as log reduction in bacterial load in lung at 25 mg/kg, po administered 18 days postinfection for 9 days measured on day 24 relative to control; type: functional
[16] = tested on: Mycobacterium tuberculosis; assay: Antibacterial activity against Mycobacterium tuberculosis H37Rv under aerobic conditions; type: functional
[17] = tested on: Mycobacterium tuberculosis; assay: Ratio of […] for Mycobacterium tuberculosis H37Rv; type: functional
[18] = Terminal half life in C57BL/6 mouse; type: ADME, organism-based; settings: in vivo, read-out: beta t1/2 (converted)
Blood [19] = assay: Drug level in C57BL/6 mouse blood at 300 mg/kg, po; type: ADME, organism-based; design: dose 300 mg/kg, route oral; settings: in vivo
[20] = tested on: Mycobacterium tuberculosis; assay: Antibacterial activity against Mycobacterium tuberculosis Erdman infected in gamma interferon gene knockout C57BL/6 mouse assessed as log reduction in bacterial load in spleen at 300 mg/kg, po administered 18 days postinfection for 9 days measured on day 24 relative to control; type: functional
Mus musculus [21] = assay: Toxicity in gamma interferon gene knockout C57BL/6 mouse infected with Mycobacterium tuberculosis Erdman assessed as lethargic at 300 mg/kg, po administered 18 days postinfection for 9 days; type: organism-based; design: dose 300 mg/kg, route oral; settings: in vivo
[22] = tested on: Mycobacterium tuberculosis; assay: Antibacterial activity against Mycobacterium tuberculosis Erdman infected in gamma interferon gene knockout C57BL/6 mouse assessed as log reduction in bacterial load in spleen at 25 mg/kg, po administered 18 days postinfection for 9 days measured on day 24 relative to control; type: functional
Blood [23] = assay: Drug level in C57BL/6 mouse blood at 25 mg/kg, po; type: ADME, organism-based; design: dose 25 mg/kg, route oral; settings: in vivo
[24] = tested on: Mycobacterium tuberculosis; assay: Antibacterial activity against Mycobacterium tuberculosis Erdman infected in gamma interferon gene knockout C57BL/6 mouse assessed as log reduction in bacterial load in lung at 100 mg/kg, po administered 18 days postinfection for 9 days measured on day 24 relative to control; type: functional
[25] = tested on: Mycobacterium tuberculosis; assay: Antibacterial activity against Mycobacterium tuberculosis H37Rv under anaerobic conditions by luciferase based low oxygen recovery assay; type: functional
[26] = tested on: Mycobacterium tuberculosis; assay: Antibacterial activity against Mycobacterium tuberculosis Erdman infected in gamma interferon gene knockout C57BL/6 mouse assessed as log reduction in bacterial load in spleen at 100 mg/kg, po administered 18 days postinfection for 9 days measured on day 24 relative to control; type: functional
Blood [27] = assay: Drug level in C57BL/6 mouse blood at 100 mg/kg, po; type: ADME, organism-based; design: dose 100 mg/kg, route oral; settings: in vivo
[28] = tested on: Mycobacterium tuberculosis; assay: Antibacterial activity against Mycobacterium tuberculosis Erdman infected in gamma interferon gene knockout C57BL/6 mouse assessed as bacterial load in lung at 25 mg/kg, po administered 18 days postinfection for 9 days measured on day 24 (Rvb= 4.47+/-0.12 log CFU); type: functional
[29] = tested on: Mycobacterium tuberculosis; assay: Antibacterial activity against Mycobacterium tuberculosis Erdman infected in gamma interferon gene knockout C57BL/6 mouse assessed as bacterial load in spleen at 25 mg/kg, po administered 18 days postinfection for 9 days measured on day 24 (Rvb= 6.57+/-0.17 log CFU); type: functional

| SMILES | MIC [1] [µg/mL] | MIC [2] [µg/mL] | Selectivity Index [3] | Ratio [4] | MIC [5] [µg/mL] | Activity (Mus musculus [6]) | log10cfu [7] | MIC [8] [µg/mL] | log10cfu [9] | Activity (Mus musculus [10]) | also measured |
| --- | --- | --- | --- | --- | --- | --- | --- | --- | --- | --- | --- |
| CCOC(=O)c1c(C)[n+]([O-])c2cc(C)c(C)cc2[n+]1[O-] | 6.25 (≈ 22.6 µM) | ≤ 3.13 | >10 | 0.46 | – | – | – | – | – | – | – |
| CCOC(=O)c1c(C)[n+]([O-])c2ccc(C)cc2[n+]1[O-] | 1.56 (≈ 5.95 µM) | 3.13 (≈ 11.9 µM) | >40.06 | 1.4 | 3.13 (≈ 11.9 µM) | – | – | – | – | – | – |
| CCOC(=O)c1c(C)[n+]([O-])c2ccccc2[n+]1[O-] | 1.56 (≈ 6.28 µM) | 1.56 (≈ 6.28 µM) | 30.13 | 0.56 | – | – | – | – | – | – | – |
| CCOC(=O)c1c(C)[n+]([O-])c2cc(Cl)c(Cl)cc2[n+]1[O-] | 0.2 (≈ 0.631 µM) | 0.2 (≈ 0.631 µM) | >20 | >3.15 | – | Non-toxic | 6.75 | 0.39 (≈ 1.23 µM) | 7.64 | Non-toxic | – |
| COCCOC(=O)c1c(C)[n+]([O-])c2cc(Cl)c(Cl)cc2[n+]1[O-] | 0.39 (≈ 1.12 µM) | ≤ 0.2 | 11.54 | >4 | 0.78 (≈ 2.25 µM) | Non-toxic | 7.18 | 0.39 (≈ 1.12 µM) | 8.73 | Non-toxic | – |
| Cc1ccc2c(c1)[n+]([O-])c(C(=O)OCc1ccccc1)c(C)[n+]2[O-] | 0.39 (≈ 1.2 µM) | 0.39 (≈ 1.2 µM) | 143.7 | 2.9 | 0.78 (≈ 2.4 µM) | Non-toxic | 6.63 | 0.78 (≈ 2.4 µM) | 7.17 | Non-toxic | – |
| Cc1c(C(=O)OCc2ccccc2)[n+]([O-])c2ccccc2[n+]1[O-] | 0.1 (≈ 0.322 µM) | 0.2 (≈ 0.645 µM) | 470 | 1.5 | 0.2 (≈ 0.645 µM) | Non-toxic | 6.96 | 0.1 (≈ 0.322 µM) | 7.41 | Non-toxic | – |
| Cc1c(C(=O)OCc2ccccc2)[n+]([O-])c2cc(Cl)c(Cl)cc2[n+]1[O-] | 0.2 (≈ 0.527 µM) | 0.39 (≈ 1.03 µM) | 29 | 14.35 | – | Non-toxic | 7.17 | 0.1 (≈ 0.264 µM) | 8.07 | Non-toxic | – |
| COC(=O)c1c(C)[n+]([O-])c2ccc(C)cc2[n+]1[O-] | 1.56 (≈ 6.28 µM) | 3.13 (≈ 12.6 µM) | >40.06 | 1.24 | 3.13 (≈ 12.6 µM) | – | – | – | – | – | – |
| COC(=O)c1c(C)[n+]([O-])c2cc(C)c(C)cc2[n+]1[O-] | 3.13 (≈ 11.9 µM) | 3.13 (≈ 11.9 µM) | >20 | 0.52 | 3.13 (≈ 11.9 µM) | – | – | – | – | – | – |
| CCOC(=O)c1c(C)[n+]([O-])c2ccc(Cl)cc2[n+]1[O-] | 0.2 (≈ 0.708 µM) | 0.2 (≈ 0.708 µM) | >50 | 2.3 | – | Non-toxic | 3.95 | 0.78 (≈ 2.76 µM) | 4.55 | Non-toxic | MBC [11]: 2.5 µg/mL (≈ 8.84 µM); Activity (Mus musculus [12]): Toxic; Cmax [13]: 5000 ng/mL; log10cfu [14]: 5.58; log10cfu [15]: 0.99; MIC [16]: 0.24 µg/mL (≈ 0.849 µM); Ratio [17]: 4.2; half-life [18]: 4 h; Drug uptake (Blood [19]): 9 µg/mL; log10cfu [20]: 5.51; Activity (Mus musculus [21]): Toxic; log10cfu [22]: 1.61; Drug uptake (Blood [23]): 3 µg/mL; log10cfu [24]: 2.03; MIC [25]: 0.42 µg/mL (≈ 1.49 µM); log10cfu [26]: 2.72; Drug uptake (Blood [27]): 6 µg/mL |
| Cc1c(C(=O)OCc2ccccc2)[n+]([O-])c2cc(Cl)ccc2[n+]1[O-] | 0.1 (≈ 0.29 µM) | – | 76.9 | 0.01 | – | Non-toxic | 6.62 | 0.1 (≈ 0.29 µM) | 7.21 | Non-toxic | – |
| NNC(=O)c1ccncc1 [ISONIAZID] | – | – | – | – | – | – | – | – | – | – | log10cfu [15]: 3.33; log10cfu [28]: 4.47; log10cfu [22]: 5.04; log10cfu [29]: 2.2 |
| O=C(Nc1ccc([N+](=O)[O-])cc1Cl)c1cc(Cl)ccc1O [NICLOSAMIDE] | – | – | – | – | – | – | – | – | – | – | MIC [16]: 0.28 µg/mL (≈ 0.856 µM); MIC [25]: 0.32 µg/mL (≈ 0.978 µM) |
| O=[N+]([O-])c1cn2c(n1)OC[C@@H](OCc1ccc(OC(F)(F)F)cc1)C2 [PRETOMANID] | – | – | – | – | – | – | – | – | – | – | MIC [16]: 0.1 µg/mL (≈ 0.278 µM); MIC [25]: 1.4 µg/mL (≈ 3.9 µM) |
